Measured values taken from PMC4777574, “Pharmacological Inhibition of Monoacylglycerol O-Acyltransferase 2 Improves Hyperlipidemia, Obesity, and Diabetes by Change in Intestinal Fat Utilization” (PLoS ONE, 2016).

Columns and labels:
[1] = target: T1, Monoacylglycerol O-acyltransferase 2 (MGAT2) (Mus musculus, UniProt Q80W94); assay: MGAT2 enzyme inhibition IC50 (assay details not given); anorectic effect lost in MGAT2 KO mice; assay type: biochemical
T1 construct: gene Mogat2

[2] = target: T2, Monoacylglycerol O-acyltransferase 2 (MGAT2) (Homo sapiens, UniProt Q3SYC2); assay: MGAT2 enzyme inhibition IC50 (assay details not given); assay type: biochemical
T2 construct: gene MOGAT2
T2 sequence (Q3SYC2 whole entry): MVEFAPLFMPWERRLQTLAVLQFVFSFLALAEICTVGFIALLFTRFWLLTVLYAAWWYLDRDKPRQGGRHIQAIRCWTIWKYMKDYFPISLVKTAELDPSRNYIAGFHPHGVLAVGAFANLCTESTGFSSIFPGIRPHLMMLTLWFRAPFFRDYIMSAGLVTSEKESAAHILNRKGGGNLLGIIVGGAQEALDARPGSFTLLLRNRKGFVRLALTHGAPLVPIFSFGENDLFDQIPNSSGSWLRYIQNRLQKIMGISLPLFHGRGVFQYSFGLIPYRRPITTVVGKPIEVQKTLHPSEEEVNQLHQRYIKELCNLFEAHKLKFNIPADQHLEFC

T1 sequence (Q80W94 whole entry): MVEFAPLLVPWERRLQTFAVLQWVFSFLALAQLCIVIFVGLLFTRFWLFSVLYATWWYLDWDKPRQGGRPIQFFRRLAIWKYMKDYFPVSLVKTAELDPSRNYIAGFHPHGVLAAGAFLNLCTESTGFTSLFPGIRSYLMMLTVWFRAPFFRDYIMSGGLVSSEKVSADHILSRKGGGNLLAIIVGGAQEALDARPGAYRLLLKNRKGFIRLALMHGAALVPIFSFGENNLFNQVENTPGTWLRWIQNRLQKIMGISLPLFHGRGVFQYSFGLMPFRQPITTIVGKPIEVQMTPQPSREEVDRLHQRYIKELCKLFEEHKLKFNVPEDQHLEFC

IC50 [1]: 2.4 nM
IC50 [2]: 7.8 nM
SMILES: Cn1nc(C(F)(F)F)cc1-c1cnc(N2CCc3cc(S(=O)(=O)Nc4c(F)cc(Cl)cc4F)cc(N4CCCC4=O)c32)nc1 [compA, compound A]
